Test results from ChEMBL document CHEMBL3792353, “Differentiation of ROMK potency from hERG potency in the phenacetyl piperazine series through heterocycle incorporation” (Bioorg Med Chem Lett, 2016).

Legend:
Settings in all cases: in vivo
Rattus norvegicus = assay: Dose normalized AUC in Sprague-Dawley rat at 2 mg/kg, po; assay type: ADME, organism-based
[1] = Oral bioavailability in Sprague-Dawley rat at 2 mg/kg; assay type: ADME, organism-based
[2] = Half life of compound in Sprague-Dawley rat at 1 mg/kg, iv and 2 mg/kg, po; assay type: ADME, organism-based
Canis familiaris = assay: fCmax in vagotomized beagle dog at 10 mg/kg, iv administered as cumulative dose; assay type: ADME, organism-based, Canis lupus familiaris
[3] = Half life of compound in beagle dog at 0.5 mg/kg, iv; assay type: ADME, organism-based, Canis lupus familiaris
[4] = Half life of compound in rhesus monkey at 0.25 mg/kg, iv and 0.5 mg/kg, po; assay type: ADME, organism-based, Macaca mulatta
[5] = Oral bioavailability in rhesus monkey at […]; assay type: ADME, organism-based, Macaca mulatta
Rhesus monkey = assay: Dose normalized AUC in rhesus monkey at 0.5 mg/kg, po; assay type: ADME, organism-based, Macaca mulatta

SMILES: Cc1cc(-n2cnnn2)cnc1CC(=O)N1CCN(CCc2ccc3c(c2C)COC3=O)CC1
- AUC/dose (Rattus norvegicus): 0.35 µM·kg·h/mg
- bioavailability [1]: 18%
- half-life [2]: 19.8 min

SMILES: Cc1c(C(C)CN2CCN(C(=O)Cc3ccc(-n4cnnn4)nc3)CC2)ccc2c1COC2=O (racemic)
- AUC/dose (Rattus norvegicus): 0.45 µM·kg·h/mg
- bioavailability [1]: 25%
- half-life [2]: 57.6 min

SMILES: Cc1c(C(F)CN2CCN(C(=O)Cc3ccc(-n4cnnn4)nc3)CC2)ccc2c1COC2=O (racemic)
- AUC/dose (Rattus norvegicus): 0.31 µM·kg·h/mg
- bioavailability [1]: 46%
- half-life [2]: 21 min

SMILES: O=C1OCc2cc(CCN3CCN(C(=O)Cc4ccc(-n5cnnn5)cc4)CC3)ccc21
- AUC/dose (Rattus norvegicus): 0.067 µM·kg·h/mg
- half-life [2]: 9.6 min

SMILES: Cc1c(CCN2CCN(C(=O)Cc3ccc(-n4cnnn4)nc3)CC2)ccc2c1COC2=O
- fCmax (Canis familiaris): 21 µM
- half-life [3]: 78 min
- half-life [4]: 66 min
- bioavailability [5]: < 1%
- AUC/dose (Rattus norvegicus): 0.84 µM·kg·h/mg
- bioavailability [1]: 38%
- half-life [2]: 26.4 min
- AUC/dose (Rhesus monkey): 0.001 µM·kg·h/mg
